From patent US20240391870A1 (Arcturus Therapeutics, Inc., priority 2023, published 2024)

Key:
hEPO = hEPO mRNA expression evaluation (hEPO-LNPs); assay type: in vivo, Balb/c mice; details: Table 2; 0.1 mpk i.v., serum hEPO after 6 hr
Experimental: Protocol for hEPO mRNA Expression Evaluation
Lipid formulations comprising a hEPO mRNA below were evaluated for their ability to express hEPO in vivo according to the protocol of this example. All animal experiments were conducted using institutionally-approved protocols (IACUC). In this protocol, female Balb/c mice at least 6-8 weeks of age were purchased from Charles River Laboratory. […] After 6 hr, blood was collected with serum separation tubes, and the serum was isolated by centrifugation. Serum hEPO levels were then measured using an ELISA assay (Human Erythropoietin Quantikine IVD ELISA Kit, R&D Systems, Minneapolis, MD).

factor VII = assay: Factor VII knock down evaluation (LNP with FVII siRNA); assay type: in vivo, Balb/C mice; details: Table 2, plasma FVII after 48 h vs saline control; for FVII KD % 0.01 mpk: 0.01 mpk i.v.; for FVII KD % 0.03 mpk: 0.03 mpk i.v.
Experimental: Lipid formulations comprising a FVII siRNA further described below were evaluated for their knockdown activity using the protocol of this example. In the FVII evaluation, seven to eight week-old, female Balb/C mice were purchased from Charles River Laboratories (Hollister, CA). The mice were held in a pathogen-free environment and all procedures involving the mice were performed in accordance with guidelines established by the Institutional Animal Care and Use Committee (IACUC). Lipid nanoparticles containing factor VII siRNA were administered intravenously at a dosing volume of 10 mL/kg and two dose levels (0.03 and 0.01 mg/kg). After 48 h, the mice were anesthetized with isoflurane and blood was collected retro-orbitally into Microtainer® tubes coated with 0.109 M sodium citrate buffer (BD Biosciences, San Diego, CA) and processed to plasma. Plasma specimens were tested for factor VII levels immediately or stored at −80° C. for later analysis. Measurement of FVII protein in plasma was determined using the colorimetric Biophen VII assay kit (Aniara Diagnostica, USA). Absorbance was measured at 405 nm and a calibration curve was generated using the serially diluted control plasma to determine levels of factor VII in plasma from treated animals, relative to the saline-treated control animals.

Mouse plasma stability = assay type: in vitro ADME, CD-1 mouse; details: Table 2, mouse plasma 37 C, 1 uM lipid
Experimental: Lipid stock solution was prepared by dissolution of the lipid in isopropanol at the concentration of 5 mg/mL. A requisite volume of the lipid-isopropanol solution was then diluted to 100 μM concentration at a total volume of 1.0 mL with in 50:50 (v/v) ethanol/water. Ten microliters of this 100 μM solution was spiked into 1.0 mL of mouse plasma (BioIVT, Cat. No.: MSE00PLNHUNN, CD-1 mouse, anticoagulant: sodium heparin, not filtered) that was pre-warmed to 37° C. and was stirred at 50 rpm with a magnetic stir bar. The starting concentration of lipids in plasma was thus 1 μM. At time points 0, 15, 30, 45, 60 and 120 min, 0.1 mL of the plasma was withdrawn from the reaction mixture and the protein was precipitated by adding 0.9 mL of ice-cold 4:1 (v/v) acetonitrile/methanol with 1 μg/mL of a selected internal standard lipid added. After filtration through a 0.45 micron 96-well filtering plate, the filtrates were analyzed by LC-MS (Thermo Fisher's Vanquish UHPLC—LTQ XL linear ion trap Mass Spectrometer); Waters XBridge BEH Shield RP18 2.5 micron (2.1×100 mm) column with its matching guard column. Mobile phase A was 0.1% formic acid in water, and mobile phase B was 0.1% formic acid in 1:1 (v/v) acetonitrile/methanol. Flow rate was 0.5 ml/min. Elution gradient was: Time 0-1 min: 10% B; 1-6 min: 10%-95% B; 6-8.5 min: 95% B; 8.5-9 min: 95%-10% B; 9-10 min: 10% B. Mass spectrometry was in positive scanning mode from 600-1100 m/z. The peak of the molecular ion of the lipids was integrated in the extracted ion chromatography (XIC) using Xcalibur software (Thermo Fisher). The relative peak area compared to T=0, after normalization by the peak area of the internal standard, was used as the percentage of the lipid remaining at each time point. T1/2 values were calculated using the first-order decay model.

[1] = In vivo biodegradability assay (lipid in liver); details: Table 2, mouse liver, 48 h

| SMILES | EPO exprssn (ng/mL) 0.1 mpk (hEPO) [ng/mL] | FVII KD % 0.01 mpk (factor VII) [%] | FVII KD % 0.03 mpk (factor VII) [%] | Percent remaining in mouse plasma after 2 h (Mouse plasma stability) [%] | In vivo degradability (ng/tissue) at 48h 0.03 mpk [1] | In vivo degradability (ng/tissue) at 48h 0.1 mpk [1] |
| --- | --- | --- | --- | --- | --- | --- |
| CCCCCCC(C)C(=O)OCC(COC(=O)C(C)CCCCCC)OC(=O)CCCN(CCCC(=O)OC(COC(=O)C(C)CCCCCC)COC(=O)C(C)CCCCCC)C(=O)OCCCN(C)C (stereo not drawn) [LIPID 35, [2-[4-[3-(dimethylamino)propoxycarbonyl-[4-[2-(2-methyloctanoyloxy)-1-(2-methyloctanoyloxymethyl)ethoxy]-4-oxo-butyl]amino]butanoyloxy]-3-(2-methyloctanoyloxy)propyl]2-methyloctanoate] | 678 | 68.5 | 84 |  |  |  |
| CN(C)CCCSC(=O)N(CCCC(=O)OC(COC(=O)C1CC2CCCCC2C1)COC(=O)C1CC2CCCCC2C1)CCCC(=O)OC(COC(=O)C1CC2CCCCC2C1)COC(=O)C1CC2CCCCC2C1 (stereo not drawn) [LIPID 28] | 216 | 26 | 75.3 | 100 | BLOQ | BLOQ |
| CCC1CCC(C(=O)OCC(C)(COC(=O)CCN(CCC(=O)OCC(C)(COC(=O)C2CCC(CC)CC2)COC(=O)C2CCC(CC)CC2)C(=O)SCCCN(C)C)COC(=O)C2CCC(CC)CC2)CC1 (stereo not drawn) [LIPID 22] | 1104 | 56 | 87 | 100 | <340 ng/tissue | <340 ng/tissue |
| CCCCCCC(C)C(=O)OCC(COC(=O)C(C)CCCCCC)OC(=O)CCCN(CCCC(=O)OC(COC(=O)C(C)CCCCCC)COC(=O)C(C)CCCCCC)C(=O)NCCCN(C)C (stereo not drawn) [LIPID 36, [2-[4-[3-(dimethylamino)propylcarbamoyl-[4-[2-(2-methyloctanoyloxy)-1-(2-methyloctanoyloxymethyl)ethoxy]-4-oxo-butyl]amino]butanoyloxy]-3-(2-methyloctanoyloxy)propyl]2-methyloctanoate] | 0 | 0 | 0 |  |  |  |
| CCCCCCCC(=O)OCC(C)(COC(=O)CCCCCCC)COC(=O)CCN(CCC(=O)OCC(C)(COC(=O)CCCCCCC)COC(=O)CCCCCCC)C(=O)SCCCN(C)C [LIPID 24] | 1420 | 60.5 | 87.4 | 100 | BLOQ | BLOQ |
| CC1CCC(CCC(=O)OCC(C)(COC(=O)CCC2CCC(C)CC2)COC(=O)CCN(CCC(=O)OCC(C)(COC(=O)CCC2CCC(C)CC2)COC(=O)CCC2CCC(C)CC2)C(=O)SCCCN(C)C)CC1 (stereo not drawn) [LIPID 20] | 1148 | 36 | 74 | 100 | <340 ng/tissue | <340 ng/tissue |
| Cc1ccc(CCC(C)C(=O)OCC(COC(=O)C(C)CCc2ccc(C)cc2)OC(=O)CCCN(CCCC(=O)OC(COC(=O)C(C)CCc2ccc(C)cc2)COC(=O)C(C)CCc2ccc(C)cc2)C(=O)SCCCN(C)C)cc1 (stereo not drawn) [LIPID 41, ((4,4′-((((3-(dimethylamino)propyl)thio)carbonyl)azanediyl)bis (butanoyl))bis(oxy))bis(propane-2,1,3-triyl)tetrakis(2-methyl-4-(p-tolyl)butanoate)] | 1209 | 56 | 76 |  |  |  |
| CCCCCCCCC(=O)OCC(COC(=O)CCCCCCCC)COC(=O)CCN(CCC(=O)OCC(COC(=O)CCCCCCCC)COC(=O)CCCCCCCC)C(=O)SCCN(C)C [LIPID 26] | 70 | 8 | 50 | 100 | BLOQ | BLOQ |
| CCCCC(C)(C)CC(=O)OCC(C)(COC(=O)CCN(CCC(=O)OCC(C)(COC(=O)CC(C)(C)CCCC)COC(=O)CC(C)(C)CCCC)C(=O)SCCCN(C)C)COC(=O)CC(C)(C)CCCC [LIPID 23] | 730 | 17 | 61.7 | 100 | <340 ng/tissue | <340 ng/tissue |
| CC1CCC(CC(=O)OCC(C)(COC(=O)CCN(CCC(=O)OCC(C)(COC(=O)CC2CCC(C)CC2)COC(=O)CC2CCC(C)CC2)C(=O)SCCCN(C)C)COC(=O)CC2CCC(C)CC2)CC1 (stereo not drawn) [LIPID 21] | 1028 | 57 | 90 | 100 | <340 ng/tissue | <340 ng/tissue |
| CN(C)CCCSC(=O)N(CCCC(=O)OC(COC(=O)C1CCC2CCCC2C1)COC(=O)C1CCC2CCCC2C1)CCCC(=O)OC(COC(=O)C1CCC2CCCC2C1)COC(=O)C1CCC2CCCC2C1 (stereo not drawn) [LIPID 30, ((4,4′-((((3-(dimethylamino)propyl)thio)carbonyl)azanediyl)bis (butanoyl))bis(oxy))bis(propane-2,1,3-triyl)tetrakis(octahydro-1H-indene-5-carboxylate)] | 95 | 3.2 | 62.1 | 100 | BLOQ | BLOQ |
| CCCCCCCCC(=O)OCC(COC(=O)CCCCCCCC)COC(=O)CCCN(CCCC(=O)OCC(COC(=O)CCCCCCCC)COC(=O)CCCCCCCC)C(=O)SCCCN(C)C [LIPID 25] | 2945 | 63 | 95 | 100 | BLOQ | BLOQ |
| CC1CCC(CCC(=O)OCC(COC(=O)CCC2CCC(C)CC2)COC(=O)CCN(CCC(=O)OCC(COC(=O)CCC2CCC(C)CC2)COC(=O)CCC2CCC(C)CC2)C(=O)SCCCN(C)C)CC1 (stereo not drawn) [LIPID 27] | 69 | 48.1 | 84.9 | 100 | BLOQ | BLOQ |
